Measurements reported in patent US20250194596A1 (priority 2023, published 2025).
Where a name gives a salt, the structure may show the parent alone. Read-outs that look alike come from different tables or passages of the source.

Legend:
[1] = system: CLas; format: in vivo, Candidatus Liberibacter asianticum
[2] = system: CLas; format: in vivo, Candidatus Liberibacter asianticum; conditions: injection into the tree trunks for one week
[3] = format: physicochemical; conditions: 10 mg/mL in water
[4] = on human beings and animals; cited from earlier work

## CC1(C)S[C@@H]2[C@H](NC(=O)[C@H](N)c3ccccc3)C(=O)N2[C@H]1C(=O)O [ampicillin, reference compound]
[1]; 12 mg/mL, mesophyll injection, 3 d
  CLas content reduced: more than 80%

## O=C(/C=C/c1ccc(O)c(O)c1)O[C@@H]1C[C@](O)(C(=O)O)C[C@@H](O)[C@H]1O [chlorogenic acid]
[2]
  reduction of CLas content: about 60%
[3]
  appearance of solution: turbid
[1]; 0.5 mg/mL chlorogenic acid, mesophyll injection, 3 d
  CLas content reduced: more than 60%
[1]; 10 mg/mL, mesophyll injection, 3 d
  inhibitory effect on CLas: equivalent to that of 5 mg/mL
[1]; concentrations below 0.5 mg/mL, mesophyll injection, 3 d
  antibacterial effect on CLas: not obvious
[1]; in vivo
  concentration achieving a significant inhibitory effect on CLas: not less than 5 mg/mL
[1]; injection into the mesophyll for 3 days
  reduction of CLas content: about 60%
[1]; mesophyll injection of HLB-infected leaves, CLas content after 3 d
  minimum inhibitory concentration (MIC) of chlorogenic acid for CLas: 500 µg/mL

## CN(C)[C@@H]1C(O)=C(C(N)=O)C(=O)[C@@]2(O)C(O)=C3C(=O)c4c(O)cccc4[C@@](C)(O)[C@H]3[C@H](O)[C@@H]12 [oxytetracycline hydrochloride, reference compound]
[1]; 20 mg/mL, mesophyll injection, 3 d
  reduction of CLas content: about 20%

## rhamnolipid
[4]
  toxic or side effects: no toxic or side effects
